Measurements reported in US20160158307A1, “Potent and Efficient Cytotoxic Peptides and Antibody-Drug Conjugates thereof and Their Synthesis” (priority 2014, published 2016).
Numbered stars: 1 amine (or outer) side, 2 acyl side, 3 side chain; on linkers, the order of the positions; unused ones are H or OH. Square brackets hold non-standard residues; d marks the D form. Peptide text beside a SMILES is read from it. * marks the point of attachment. Butanoyl(3R-OMe,4S-NMe,4-Cy) = CO[C@H](CC(=O)[*:2])[C@H](C1CCCCC1)N(C)[*:1]; Dolaproine = CO[C@@H]([C@@H]1CCCN1)[C@@H](C)C(=O)O; X2 = CO[C@H](CC(=O)[*:2])[C@H](C1CCCC1)N(C)[*:1]; Dil = CC[C@H](C)[C@H](NC)[C@@H](CC(=O)O)OC; X1 = C[C@@H](N*)[C@@H](O)c1ccccc1; NMeV = CN[C@H](C(=O)O)C(C)C; Aib = CC(C)(N)C(=O)O; OtBu = CC(C)(C)O*

Columns and labels:
Format in all cases: cell-based, Human
Hela = assay: In vitro cell assay (Cell Titer Glo), Hela; conditions: 6 days exposure
Method: (§1) In vitro cell assay is performed in a 96 well micro titer plate. Human tumor cell lines Hela, A549, MCF-7, HCC-1954 and SK-BR-3 are obtained from ATCC (American Type Culture Collection).
The cells were harvested respectively during the logarithmic growth period and counted with hemocytometer. The cell viability was over 98% by trypan blue exclusion. 90 μl of cell suspensions were added in to 96-well plates, the final cell density was reached to 3000 cells/well. Plates were incubated for 96 hours at 37° C., and 5% CO2.
(§2) To each well was added 10 μL, of DMSO diluted compound (10×). For the sentinel base T0 plate, to each well was added 100 μL Cell Titer Gloand the luminescence signals with Envision reading were recorded.
(§3) […] Plates are read with Envision after adding Cell Titer Glo to each well. IC50 values were calculated using GraphPad Prism 5.

A549 = assay: In vitro cell assay (Cell Titer Glo), A549
Method: as §1
The cells were harvested respectively during the logarithmic growth period and counted with hemocytometer. The cell viability was over 98% by trypan blue exclusion. 90 μl of cell suspensions were added in to 96-well plates, the final cell density was reached to 3000 cells/well. […]
as §2, §3

HCC1954 = assay: In vitro cell assay (Cell Titer Glo), HCC1954; conditions: 6 days exposure
Method: as §1
The cells were harvested respectively during the logarithmic growth period and counted with hemocytometer. […] 90 μl of cell suspensions were added in to 96-well plates, the final cell density was reached to 3000 cells/well. […]
as §2, §3

SK-BR-3 = assay: In vitro cell assay (Cell Titer Glo), SK-BR-3; conditions: 6 days exposure
Method: as §1
(§4) The cells were harvested respectively during the logarithmic growth period and counted with hemocytometer. […] 90 μl of cell suspensions were added in to 96-well plates, the final cell density was reached to 3000 cells/well. Plates were incubated for 96 hours at 37° C., and 5% CO2.
as §2, §3

MCF-7 = assay: In vitro cell assay (Cell Titer Glo), MCF-7
Method: as §1, §4, §2, §3

[1] = Homo sapiens, HeLa, 144 h, Table 2
[2] = Homo sapiens, HCC1954, 144 h, Table 2
[3] = Homo sapiens, SK-BR-3, 144 h, Table 2
[4] = Homo sapiens, HeLa, 144 h, Table 01
[5] = Homo sapiens, HCC1954, 144 h, Table 01
[6] = Homo sapiens, SK-BR-3, 144 h, Table 01
[7] = Table 3, payloads and related ADCs, Her2 positive

Row | Structure (SMILES) | IC50 (Hela; [1]) [nM] | IC50 (A549; Homo sapiens, A549, Table 2) [nM] | IC50 (HCC1954; [2]) [nM] | IC50 (SK-BR-3; [3]) [nM] | IC50 (MCF-7; Homo sapiens, MCF7, Table 2) [nM] | IC50 (Hela; [4]) [nM] | IC50 (A549; Homo sapiens, A549, Table 01) [nM] | IC50 (HCC1954; [5]) [nM] | IC50 (SK-BR-3; [6]) [nM] | IC50 (MCF-7; Homo sapiens, MCF7, Table 01) [nM] | further results
1 | CO[C@H]([C@@H](C)C(=O)N[C@@H](Cc1ccccc1)c1nccs1)[C@@H]1CCCN1C(=O)C[C@@H](OC)[C@H](C1CCCC1)N(C)C(=O)[C@@H](NC(=O)C(C)(C)N)C(C)C [Compound 23] | 0.484 | 2.83 | 0.405 | 0.693 | 2.9 |  |  |  |  |  | 
2 | CO[C@H]([C@@H](C)C(=O)N[C@@H](Cc1ccccc1)C(=O)OC(C)(C)C)[C@@H]1CCCN1C(=O)C[C@@H](OC)[C@H](C1CCCCC1)N(C)C(=O)[C@@H](NC(=O)C(C)(C)N)C(C)C [Compound 22, (S)-tert-butyl-2-((2R,3R)-3-((S)-1-((3R,4S)-4-((S)-2-(2-amino-2-methylpropanamido)-N, 3-dimethylbutanamido)-4-cyclohexyl-3-methoxybutanoyl)pyrrolidin-2-yl)-3-methoxy-2-methylpropanamido)-3-phenylpropanoate] (H-[Aib]V[Butanoyl(3R-OMe,4S-NMe,4-Cy)][Dolaproine]F-OtBu) | 0.567 | 1.08 | 0.112 | 0.066 | 0.529 |  |  |  |  |  | 
3 | N.N.[Cl][Pt][Cl] [Cisplatin, reference compound] |  |  |  |  |  |  |  |  |  |  | IC50 (Hela; Table 01): 182 nM; IC50 (Hela; Table 2): 182 nM; IC50 (A549; Table 01, 6 days exposure): 2830 nM; IC50 (A549; Table 2, 6 days exposure): 2830 nM; IC50 (HCC1954; Table 01): 3270 nM; IC50 (HCC1954; Table 2): 3270 nM; IC50 (SK-BR-3; Table 01): 854 nM; IC50 (SK-BR-3; Table 2): 854 nM; IC50 (MCF-7; Table 01, 6 days exposure): 3550 nM; IC50 (MCF-7; Table 2, 6 days exposure): 3550 nM
4 | CN[C@H](C(=O)N[C@H](C(=O)N(C)[C@@H](C1CCCC1)[C@@H](CC(=O)N1CCC[C@H]1[C@H](OC)[C@@H](C)C(=O)N[C@@H](Cc1ccccc1)C(=O)OC(C)(C)C)OC)C(C)C)C(C)C [Compound 37] (H-[NMeV]V[X2][Dolaproine]F-OtBu) |  |  |  |  |  | 0.198 | 0.863 | 0.095 | 0.118 | 0.456 | 
5 | CN[C@H](C(=O)N[C@H](C(=O)N(C)[C@@H](C1CCCCC1)[C@@H](CC(=O)N1CCC[C@H]1[C@H](OC)[C@@H](C)C(=O)N[C@@H](Cc1ccccc1)c1nccs1)OC)C(C)C)C(C)C [Compound 36] |  |  |  |  |  | 0.143 | 0.567 | 0.103 | 0.197 | 0.841 | 
6 | CO[C@H]([C@@H](C)C(=O)N[C@@H](Cc1ccccc1)C(=O)OC(C)(C)C)[C@@H]1CCCN1C(=O)C[C@@H](OC)[C@H](C1CCCC1)N(C)C(=O)[C@@H](NC(=O)C(C)(C)N)C(C)C [Compound 21, (S)-tert-butyl2-((2R,3R)-3-((S)-1-((3R,4S)-4-((S)-2-(2-amino-2-methylpropanamido)-N,3-dimethylbutanamido)-4-cyclopentyl-3-methoxybutanoyl)pyrrolidin-2-yl)-3-methoxy-2-methylpropanamido)-3-phenylpropanoate] (H-[Aib]V[X2][Dolaproine]F-OtBu) | 0.563 | 1.13 | 0.296 | 0.223 | 1.3 |  |  |  |  |  | 
7 | CN[C@H](C(=O)N[C@H](C(=O)N(C)[C@@H](C1CCCC1)[C@@H](CC(=O)N1CCC[C@H]1[C@H](OC)[C@@H](C)C(=O)N[C@@H](Cc1ccccc1)c1nccs1)OC)C(C)C)C(C)C [Compound 35] |  |  |  |  |  | 0.102 | 0.68 | 0.119 | 0.191 | 0.914 | 
8 | CN[C@H](C(=O)N[C@H](C(=O)N(C)[C@@H](C1CCCC1)[C@@H](CC(=O)N1CCC[C@H]1[C@H](OC)[C@@H](C)C(=O)N[C@H](C)[C@@H](O)c1ccccc1)OC)C(C)C)C(C)C [Compound 33] |  |  |  |  |  | 0.43 | 2.05 | 0.146 | 0.381 | 1.36 | 
9 | CO[C@H]([C@@H](C)C(=O)N[C@@H](Cc1ccccc1)c1nccs1)[C@@H]1CCCN1C(=O)C[C@@H](OC)[C@H](C1CCCCC1)N(C)C(=O)[C@@H](NC(=O)C(C)(C)N)C(C)C [Compound 24, (S)-2-(2-amino-2-methylpropanamido)-N-((1S,2R)-1-cyclohexyl-2-methoxy-4-((S)-2-((1R,2R)-1-methoxy-2-methyl-3-oxo-3-((S)-2-phenyl-1-(thiazol-2-yl)ethylamino)propyl)pyrrolidin-1-yl)-4-oxobutyl)-N,3-dimethylbutanamide] | 0.571 | 3.34 | 0.31 | 0.524 | 1.99 |  |  |  |  |  | 
10 | CN[C@H](C(=O)N[C@H](C(=O)N(C)[C@@H](C1CCCCC1)[C@@H](CC(=O)N1CCC[C@H]1[C@H](OC)[C@@H](C)C(=O)N[C@H](C)[C@@H](O)c1ccccc1)OC)C(C)C)C(C)C [Compound 34] |  |  |  |  |  | 0.391 | 1.67 | 0.192 | 0.333 | 1.44 | 
11 | CC[C@H](C)[C@@H]([C@@H](CC(=O)N1CCC[C@H]1[C@H](OC)[C@@H](C)C(=O)N[C@H](C)[C@@H](O)c1ccccc1)OC)N(C)C(=O)[C@@H](NC(=O)[C@@H](NC)C(C)C)C(C)C [MMAE, monomethylauristatin E, reference compound] (H-[NMeV]V[Dil][Dolaproine]-X1) |  |  |  |  |  |  |  |  |  |  | IC50 (Hela; Table 01): 0.1 nM; IC50 (A549; Table 01, 6 days exposure): 0.518 nM; IC50 (HCC1954; Table 01): 0.073 nM; IC50 (HCC1954; [7]): 0.073 nM; IC50 (SK-BR-3; Table 01): 0.103 nM; IC50 (SK-BR-3; [7]): 0.103 nM; IC50 (MCF-7; Table 01, 6 days exposure): 0.321 nM; IC50 (MCF-7; Table 3, payloads and related ADCs, 6 days exposure, does not over-express Her2): 0.321 nM
12 | CO[C@H]([C@@H](C)C(=O)N[C@H](C)[C@@H](O)c1ccccc1)[C@@H]1CCCN1C(=O)C[C@@H](OC)[C@H](C1CCCCC1)N(C)C(=O)[C@@H](NC(=O)C(C)(C)N)C(C)C [Compound 18, (S)-2-(2-amino-2-methylpropanamido)-N-((1S,2R)-1-cyclohexyl-4-((S)-2-((1R,2R)-3-((1S,2R)-1-hydroxy-1-phenylpropan-2-ylamino)-1-methoxy-2-methyl-3-oxopropyl)pyrroli-din-1-yl)-2-methoxy-4-oxobutyl)-N,3-dimethylbutanamide] | 0.478 | 1.14 | 0.466 | 0.805 | 3.19 |  |  |  |  |  | 
13 | CN[C@H](C(=O)N[C@H](C(=O)N(C)[C@@H](C1CCCCC1)[C@@H](CC(=O)N1CCC[C@H]1[C@H](OC)[C@@H](C)C(=O)N[C@@H](Cc1ccccc1)C(=O)OC(C)(C)C)OC)C(C)C)C(C)C [Compound 38] (H-[NMeV]V[Butanoyl(3R-OMe,4S-NMe,4-Cy)][Dolaproine]F-OtBu) |  |  |  |  |  | 0.078 | 0.275 | 0.128 | 0.097 | 0.642 | 
14 | CO[C@H]([C@@H](C)C(=O)N[C@H](C)[C@@H](O)c1ccccc1)[C@@H]1CCCN1C(=O)C[C@@H](OC)[C@H](C1CCCC1)N(C)C(=O)[C@@H](NC(=O)C(C)(C)N)C(C)C [Compound 17, (S)-2-(2-amino-2-methylpropanamido)-N-((1S,2R)-1-cyclopentyl-4-((S)-2-((1R,2R)-3-((1S,2R)-1-hydroxy-1-phenylpropan-2-ylamino)-1-methoxy-2-methyl-3-oxopropyl)pyrrolidin-1-yl)-2-methoxy-4-oxobutyl)-N,3-dimethylbutanamide] | 1.56 | 6.32 | 0.623 | 0.839 | 4.75 |  |  |  |  |  | 
